Our source for the IC50, EC50 and melting point values is patent publication US8501238B2, “Anti-infective agents and uses thereof” (priority 2007, dated 2013).

The target in series [1] is T1, HCV polymerase 1A (Δ21 NS5B) (Hepatitis C virus genotype 1a, UniProt P27958).
T1 construct: 20 to 50nM Δ21 NS5B
Description: HCV Polymerase Inhibition Assay (1a). The class given is biochemical. The gist of the method:
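Δ21 NS5B reactions contained 20 μM CTP, 20 μM ATP, 1 μM ³H-UTP and 5 nM template RNA and ran for 2–4 h at room temperature. RNA was then spermine-precipitated, filter-captured and counted by scintillation. IC50 came from a tight-binding (Morrison) nonlinear fit of retained cpm against inhibitor concentration.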

For series [2], the system named is genotype 1a-H77 subgenomic replicon cell line. As to the kind of experiment: microbe, parasite or virus in culture. The series is classed as cell-based, HCV. The following applies: Hepatitis C virus, 72 h, read-out: EC50 1a.
Series [3] addresses T2, HCV polymerase 1B (Δ21 NS5B) (Hepatitis C virus genotype 1b, UniProt P26663).
T2 construct: 20 to 50nM Δ21 NS5B
As to the kind of experiment: biochemical. The gist of the method: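 Inhibitor pre-incubated 15 min at room temperature with Δ21 NS5B (strain BK or H77, 20–50 nM), 60–125 μM GTP, 2 mM MnCl2, pH 7.4. Reaction started with 20 μM CTP, 20 μM ATP, 1 μM 3H-UTP and 5 nM template RNA, run 2–4 h at room temperature. Spermine-precipitated RNA filter-captured and scintillation-counted; IC50 from tight-binding equation fit.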

For series [4], the system named is genotype 1b-Con1 subgenomic replicon cell line. As to the kind of experiment: microbe, parasite or virus in culture. The class given is cell-based, HCV. The following applies: Hepatitis C virus, 72 h, read-out: EC50 1b.

T2 sequence (P26663 2420-2989, stated change not applied): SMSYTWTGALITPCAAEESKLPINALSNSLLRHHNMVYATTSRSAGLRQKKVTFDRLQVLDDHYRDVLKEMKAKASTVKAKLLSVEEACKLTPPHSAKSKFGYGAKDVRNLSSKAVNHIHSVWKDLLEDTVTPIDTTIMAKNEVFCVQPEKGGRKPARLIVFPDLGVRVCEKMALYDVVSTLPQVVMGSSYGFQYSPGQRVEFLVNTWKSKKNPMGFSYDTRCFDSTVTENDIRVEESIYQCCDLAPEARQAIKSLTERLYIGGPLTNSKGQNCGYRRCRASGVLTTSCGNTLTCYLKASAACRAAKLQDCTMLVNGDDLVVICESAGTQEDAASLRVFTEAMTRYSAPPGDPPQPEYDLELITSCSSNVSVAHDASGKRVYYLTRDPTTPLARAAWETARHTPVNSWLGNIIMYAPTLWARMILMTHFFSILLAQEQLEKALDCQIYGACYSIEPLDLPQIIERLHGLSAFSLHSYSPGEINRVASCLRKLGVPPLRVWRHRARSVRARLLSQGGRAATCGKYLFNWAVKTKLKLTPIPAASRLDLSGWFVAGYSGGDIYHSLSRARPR
T1 sequence (P27958 2421-2990, stated change not applied): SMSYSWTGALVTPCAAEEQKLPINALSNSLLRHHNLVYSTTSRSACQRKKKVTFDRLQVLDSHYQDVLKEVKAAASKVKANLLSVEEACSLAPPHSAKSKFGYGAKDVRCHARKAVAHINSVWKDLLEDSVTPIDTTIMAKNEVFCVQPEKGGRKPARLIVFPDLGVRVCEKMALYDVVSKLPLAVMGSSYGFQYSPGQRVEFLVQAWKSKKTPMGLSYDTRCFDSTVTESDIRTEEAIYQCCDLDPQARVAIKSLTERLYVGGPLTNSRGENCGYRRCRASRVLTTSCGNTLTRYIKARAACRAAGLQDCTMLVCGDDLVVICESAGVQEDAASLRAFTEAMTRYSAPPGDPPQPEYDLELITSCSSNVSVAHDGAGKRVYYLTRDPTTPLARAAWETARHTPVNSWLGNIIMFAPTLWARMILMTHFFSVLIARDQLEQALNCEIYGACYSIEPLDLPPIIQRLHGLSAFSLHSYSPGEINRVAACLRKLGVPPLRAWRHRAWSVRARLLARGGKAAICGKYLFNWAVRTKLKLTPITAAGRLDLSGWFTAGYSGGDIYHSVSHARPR

`COc1c(-c2ccc3cc(NS(C)(=O)=O)ccc3c2)cc(-n2ccc(=O)[nH]c2=O)cc1C(C)(C)CO` [IB-L0-2.54, N-(6-(5-(2,4-dioxo-3,4-dihydropyrimidin-1(2H)-yl)-3-(1-hydroxy-2-methylpropan-2-yl)-2-methoxyphenyl)naphthalen-2-yl)methanesulfonamide] showed a melting point of 256 to 257 °C. Further, the IC50 in series [1] is under 0.01 µM. Moreover, the EC50 in series [2] fell in the range of 0.01 to 0.1 µM. Also, the IC50 in series [3] is 0.01 to 0.1 µM. Moreover, the EC50 in series [4] fell in the range of 0.01 to 0.1 µM.
In the case of `COc1c(-c2ccc3cc(NS(C)(=O)=O)ccc3c2)cc(-n2ccc(=O)[nH]c2=O)cc1-c1ccc(C)o1` [IB-L0-2.58, N-(6-(5-(2,4-dioxo-3,4-dihydropyrimidin-1(2H)-yl)-2-methoxy-3-(5-methylfuran-2-yl)phenyl)naphthalen-2-yl)methanesulfonamide], the melting point lay in the range of 174 to 178 °C. Moreover, the IC50 in series [1] is under 0.01 µM. Moreover, the EC50 in series [2] lay in the range of 0.01 to 0.1 µM. The compound further gave an IC50 in series [3] of 0.01 to 0.1 µM. The EC50 in series [4] is under 0.01 µM.
As to `COc1c(C#C[Si](C)(C)C)cc(-n2ccc(=O)[nH]c2=O)cc1-c1ccc2cc(NS(C)(=O)=O)ccc2c1` [IB-L0-2.78, N-(6-(5-(2,4-dioxo-3,4-dihydropyrimidin-1(2H)-yl)-2-methoxy-3-((trimethylsilyl)ethynyl)phenyl)naphthalen-2-yl)methanesulfonamide], the melting point was 175 to 178 °C. In series [1], this compound returned an IC50 of over 1 µM. Moreover, the IC50 in series [3] was over 1 µM.
In turn, `CC(C)(C)c1cc(-n2ccc(=O)[nH]c2=O)cc(-c2ccc3cc(NS(C)(=O)=O)ccc3c2)c1Cl` [IB-L0-2.14, N-(6-(3-tert-butyl-2-chloro-5-(2,4-dioxo-3,4-dihydropyrimidin-1(2H)-yl)phenyl)naphthalen-2-yl)methanesulfonamide] showed a melting point of over 280 °C. In series [1], this compound came in with an IC50 of under 0.01 µM. Further, the EC50 in series [2] lay within 0.1 to 1 µM. The IC50 in series [3] was under 0.01 µM. Also, in series [4], the concentration for a half-maximal effect (EC50) was 0.01 to 0.1 µM.
Compound `CCOc1c(-c2ccc3cc(NS(C)(=O)=O)ccc3c2)cc(-n2ccc(=O)[nH]c2=O)cc1C(C)(C)C` [IB-L0-2.23, N-(6-(3-tert-butyl-5-(2,4-dioxo-3,4-dihydropyrimidin-1(2H)-yl)-2-ethoxyphenyl)naphthalen-2-yl)methanesulfonamide] displayed a melting point of 196 to 202 °C. This compound displayed an IC50 in series [1] of 0.01 to 0.1 µM. Besides, the EC50 in series [2] is 0.1 to 1 µM. Moreover, the half-inhibitory concentration (IC50) in series [3] is under 0.01 µM. For the same compound, the EC50 in series [4] is 0.01 to 0.1 µM.
On to `COc1c(-c2ccc3cc(NS(C)(=O)=O)ccc3c2)cc(-n2ccc(=O)[nH]c2=O)cc1C(F)(F)C(F)(F)F` [IB-L0-2.60, N-(6-(5-(2,4-dioxo-3,4-dihydropyrimidin-1(2H)-yl)-2-methoxy-3-(perfluoroethyl)phenyl)naphthalen-2-yl)methanesulfonamide], for which the melting point was 162 to 165 °C. In series [1], the IC50 is under 0.01 µM. Besides, in series [2], the EC50 fell in the range of 0.1 to 1 µM. The same compound returned an IC50 in series [3] of 0.01 to 0.1 µM. In addition, the concentration for a half-maximal effect (EC50) in series [4] lay in the range of 0.01 to 0.1 µM.
In the case of `COc1c(-c2ccc3cc(NS(C)(=O)=O)ccc3c2)cc(-n2ccc(=O)[nH]c2=O)cc1C(C)(C)C(=O)O` [IB-L0-2.77, 2-(5-(2,4-dioxo-3,4-dihydropyrimidin-1(2H)-yl)-2-methoxy-3-(6-(methylsulfonamido)naphthalen-2-yl)phenyl)-2-methylpropanoic acid], the melting point was over 300 °C. This compound also had an IC50 in series [1] of over 1 µM. In series [3], this compound displayed an IC50 of over 1 µM.
For the compound `COc1c(-c2ccc3cc(NS(C)(=O)=O)ccc3c2)cc(-n2ccc(=O)[nH]c2=O)cc1S(C)(=O)=O` [IB-L0-2.68, N-(6-(5-(2,4-dioxo-3,4-dihydropyrimidin-1(2H)-yl)-2-methoxy-3-(methylsulfonyl)phenyl)naphthalen-2-yl)methanesulfonamide], the IC50 in series [1] and in series [3] was 0.01 to 0.1 µM each time. Also, the EC50 is over 1 µM in series [2] and 0.1 to 1 µM in series [4].
With `COc1c(-c2ccc3c(c2)CCN(NS(C)(=O)=O)C3)cc(-n2ccc(=O)[nH]c2=O)cc1C(C)(C)C` [IB-L0-2.43, N-(6-(3-tert-butyl-5-(2,4-dioxo-3,4-dihydropyrimidin-1(2H)-yl)-2-methoxyphenyl)-3,4-dihydroisoquinolin-2(1H)-yl)methanesulfonamide], the IC50 in series [1] and in series [3] was 0.1 to 1 µM in each case. The EC50 in series [2] is over 1 µM; in series [4] it was 0.1 to 1 µM.
On to `COc1c(-c2ccc3cc(NS(C)(=O)=O)ccc3c2)cc(-n2ccc(=O)[nH]c2=O)cc1-c1ccco1` [IB-L0-2.59, N-(6-(5-(2,4-dioxo-3,4-dihydropyrimidin-1(2H)-yl)-3-(furan-2-yl)-2-methoxyphenyl)naphthalen-2-yl)methanesulfonamide], for which the IC50 was under 0.01 µM in series [1] and 0.01 to 0.1 µM in series [3]. In addition, the EC50 in series [2] was 0.1 to 1 µM; in series [4], 0.01 to 0.1 µM.
As to `COc1c(NS(C)(=O)=O)cc(-n2ccc(=O)[nH]c2=O)cc1-c1ccc2cc(NS(C)(=O)=O)ccc2c1` [IB-L0-2.75, N-(5-(2,4-dioxo-3,4-dihydropyrimidin-1(2H)-yl)-2-methoxy-3-(6-(methylsulfonamido)naphthalen-2-yl)phenyl)methanesulfonamide], the IC50 in series [1] is 0.1 to 1 µM; in series [3] it was over 1 µM. For the same compound, the EC50 in series [2] and in series [4] was over 1 µM throughout.
`COc1c(-c2nc3ccc(NS(C)(=O)=O)cc3s2)cc(N2CCC(=O)NC2=O)cc1C(C)(C)C` [IA-L0-2.2, N-(2-(3-tert-butyl-5-(2,4-dioxotetrahydropyrimidin-1(2H)-yl)-2-methoxyphenyl)benzo[d]thiazol-6-yl)methanesulfonamide]: the IC50 in series [1] and in series [3] was 0.01 to 0.1 µM each time. The EC50 in series [2] lay in the range of 0.1 to 1 µM; in series [4], 0.01 to 0.1 µM.
`COc1c(-c2ccc3c(c2)/C(=N/NS(C)(=O)=O)CC3)cc(-n2ccc(=O)[nH]c2=O)cc1-c1ccco1` [IB-L0-2.55, (E)-N′-(6-(5-(2,4-dioxo-3,4-dihydropyrimidin-1(2H)-yl)-3-(furan-2-yl)-2-methoxyphenyl)-2,3-dihydro-1H-inden-1-ylidene)methanesulfonohydrazide]: the IC50 in series [1] is under 0.01 µM; in series [3], 0.01 to 0.1 µM. The EC50 in series [2] was 0.01 to 0.1 µM; in series [4], under 0.01 µM.
With `COc1c(-c2ccc3nc(NS(C)(=O)=O)cnc3c2)cc(-n2ccc(=O)[nH]c2=O)cc1C(C)(C)C` [IB-L0-2.26, N-(6-(3-tert-butyl-5-(2,4-dioxo-3,4-dihydropyrimidin-1(2H)-yl)-2-methoxyphenyl)quinoxalin-2-yl)methanesulfonamide], the IC50 in series [1] and in series [3] was 0.01 to 0.1 µM throughout. The figures for the EC50 in series [2] and in series [4] were over 1 µM and 0.1 to 1 µM, respectively.
For `COc1c(-c2ccc3nc(NS(C)(=O)=O)ccc3c2)cc(-n2ccc(=O)[nH]c2=O)cc1C(C)(C)C` [IB-L0-2.5, N-(6-(3-tert-butyl-5-(2,4-dioxo-3,4-dihydropyrimidin-1(2H)-yl)-2-methoxyphenyl)quinolin-2-yl)methanesulfonamide], the IC50 in series [1] and in series [3] was 0.01 to 0.1 µM each time. In addition, the EC50 was 0.01 to 0.1 µM in series [2] and under 0.01 µM in series [4].
Regarding `COc1c(-c2nc3cc(NS(C)(=O)=O)ccc3s2)cc(N2CCC(=O)NC2=O)cc1C(C)(C)C` [IA-L0-2.4, N-(2-(3-tert-butyl-5-(2,4-dioxotetrahydropyrimidin-1(2H)-yl)-2-methoxyphenyl)benzo[d]thiazol-5-yl)methanesulfonamide], the IC50 in series [1] and in series [3] was 0.01 to 0.1 µM in each case. The EC50 is over 1 µM in series [2] and 0.1 to 1 µM in series [4].
Turning to `COc1c(-c2nc3ccccc3s2)cc(N2CCC(=O)NC2=O)cc1C(C)(C)C` [IA-L0-2.3, 1-(3-(benzo[d]thiazol-2-yl)-5-tert-butyl-4-methoxyphenyl)dihydro pyrimidine-2,4(1H,3H)-dione], the IC50 in series [1] and in series [3] was 0.1 to 1 µM each time. For the same compound, the half-maximal effective concentration (EC50) in series [2] and in series [4] was 0.1 to 1 µM each time.
